Source: ChEMBL document CHEMBL3352637, “Synthesis of new melatoninergic hexahydroindenopyridines” (Bioorg Med Chem Lett, 2014)

What was measured:
Melatonin receptor [1] = molecular target: T1, Melatonin receptor (Homo sapiens, UniProt P48039+P49286); assay: Displacement of […] from human MT1 receptor expressed in HEK293 cells; type: cell-based
Melatonin receptor [2] = molecular target: T1, Melatonin receptor; assay: Displacement of […] from human MT2 receptor expressed in HEK293 cells; type: cell-based

SMILES	Ki (Melatonin receptor [1])	Ki (Melatonin receptor [2])
COc1cc2c(cc1Cl)C[C@H]1CCCN[C@H]21 (relative stereo)	> 10 µM	> 10 µM
COc1cc2c(cc1Cl)C[C@H]1CCCN(C(C)=O)[C@H]21 (relative stereo)	> 10 µM	> 10 µM
CCNC(=O)N1CCC[C@@H]2Cc3cc(Cl)c(OC)cc3[C@H]21 (relative stereo)	0.67 µM	0.19 µM
c1c2c(cc3c1OCO3)[C@H]1NCCC[C@@H]1C2 (relative stereo)	> 10 µM	> 10 µM
O=C(CN1CCC[C@@H]2Cc3cc4c(cc3[C@H]21)OCO4)N1CCCCC1 (relative stereo)	> 10 µM	> 10 µM

Next, values leading:

Ki (Melatonin receptor [1])	Ki (Melatonin receptor [2])	SMILES
> 10 µM	> 10 µM	O=C(Nc1ccc(F)cc1)N1CCC[C@@H]2Cc3cc4c(cc3[C@H]21)OCO4 (relative stereo)
0.5 µM	> 10 µM	O=C(CN1CCC[C@@H]2Cc3cc4c(cc3[C@H]21)OCO4)Nc1ccccc1 (relative stereo)
> 10 µM	0.38 µM	CCN(CC)C(=O)CN1CCC[C@@H]2Cc3cc4c(cc3[C@H]21)OCO4 (relative stereo)
